From US20250108139A1, “PEPTIDE UREA DERIVATIVE, PHARMACEUTICAL COMPOSITION CONTAINING PEPTIDE UREA DERIVATIVE, AND APPLICATION OF PEPTIDE UREA DERIVATIVE” (BIVISION PHARMACEUTICALS, INC, priority 2022, published 2025)

Key:
[1] = tested on: PSMA-positive 22rv1 tumor-bearing mouse; assay: 177Lu labeling and animal biodistribution experiment, gamma counter; assay type: in vivo; details: 177Lu-labeled compound, 24 h after tail vein injection, n = 2
Protocol: Distribution in PSMA-positive tumor-bearing mouse tissues: Tumor-bearing animals (purchased from Shanghai Alamo Pharmaceutical Technology Co., Ltd.) were subcutaneously inoculated with 3×10^6 22rv1 cells (in 50% Matrigel, Corning) into the right shoulder region of 6-9 week old (Balb/c Nude) mouse. Once the tumors had grown to an appropriate size, ^177Lu-radiolabeled DB compounds were injected into the mouse via the tail vein (approximately 1.85 MBq-3.7 MBq/mouse, specific activity: 22423.82 Kbq/μg). After administration, the animals were euthanized using carbon dioxide inhalation at 24 hours. The blood and organs (blood, liver, kidney, muscle, tumor) were collected.
Blood was collected through the abdominal aorta and 100 μL was immediately quantified into designated centrifuge tubes (weighed). After collection, the organs were washed twice with deionized water, dried, placed in pre-weighed tubes, and weighed again to calculate the sample weight. Samples were measured on the day of collection. All blood and tissue samples were measured for radioactivity using a gamma counter. The results are shown in FIGS. 3, 4, 5, 6, 7, and Table 6.

[2] = Determination of Log P (n-octanol/water partition); assay type: physicochemical; details: 177Lu-labeled compound, mean of three tubes
Protocol: Three EP tubes were prepared, each containing 0.1 mL of saturated n-octanol and 80 μL of ultrapure water. Then, 20 μL (approximately 1 MBq) of the ^177Lu-labeled DB-13, DB-18, and DB-19 compound solutions were added to the respective tubes. After shaking evenly, the tubes were centrifuged at room temperature (2000 r/min, 5 minutes, centrifugation radius of 10 cm). From each tube, 100 μL was taken from both the lipid layer and the aqueous layer, and the radioactivity counts per minute for both phases were measured. The Log P values were calculated, and their mean values were taken as the final result.

[3] = biological target: PSMA-expressing cells (22Rv1) (Homo sapiens (Human), UniProt Q04609); assay: Competitive binding against radiolabeled PSMA-617 ligand on 22Rv1 cells; details: unlabeled compound vs radiolabeled PSMA-617 ligand, on ice 2 hours
Sequence of PSMA-expressing cells (22Rv1) (Q04609 whole entry): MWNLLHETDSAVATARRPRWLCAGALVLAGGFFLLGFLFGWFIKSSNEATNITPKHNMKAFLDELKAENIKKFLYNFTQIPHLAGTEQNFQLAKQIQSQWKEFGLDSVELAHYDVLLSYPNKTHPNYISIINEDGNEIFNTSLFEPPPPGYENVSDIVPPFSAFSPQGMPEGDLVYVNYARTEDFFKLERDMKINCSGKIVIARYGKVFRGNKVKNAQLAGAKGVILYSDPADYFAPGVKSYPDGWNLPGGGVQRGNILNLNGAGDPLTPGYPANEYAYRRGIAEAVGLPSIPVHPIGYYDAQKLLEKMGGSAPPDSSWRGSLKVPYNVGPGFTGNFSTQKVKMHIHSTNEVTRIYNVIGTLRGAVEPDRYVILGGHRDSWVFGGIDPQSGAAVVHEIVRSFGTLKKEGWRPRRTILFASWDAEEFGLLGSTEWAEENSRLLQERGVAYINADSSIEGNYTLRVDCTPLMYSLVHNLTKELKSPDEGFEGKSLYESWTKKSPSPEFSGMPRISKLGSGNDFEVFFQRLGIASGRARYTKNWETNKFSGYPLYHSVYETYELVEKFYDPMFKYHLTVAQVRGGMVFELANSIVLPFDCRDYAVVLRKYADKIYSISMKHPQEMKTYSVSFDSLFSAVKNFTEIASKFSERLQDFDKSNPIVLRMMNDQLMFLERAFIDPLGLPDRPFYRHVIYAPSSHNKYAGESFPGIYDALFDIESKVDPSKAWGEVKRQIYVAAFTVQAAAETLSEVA
Protocol: (1) 22Rv1 cells in the logarithmic growth phase were prepared into a cell suspension, and the cell density was adjusted to 1×10^4 cells/mL. 1 mL of the cell suspension was seeded into each well of a 24-well cell culture plate. The cells were cultured overnight in a 37° C. incubator.
(2) The cell culture medium was aspirated, and the cells were washed once with PBS. Then, 975 μL of additive-free medium was added.
(3) To each well, 25 μL of a fixed concentration of radiolabeled PSMA-617 ligand (final concentration in the medium: 2 μCi/mL) and different concentrations (final concentrations in the medium: 1000 ng/ml, 100 ng/mL, 10 ng/mL, 1 ng/mL, 0.1 ng/mL, 0.01 ng/mL, 0.001 ng/mL, 0 ng/ml) of the unlabeled test blocking compounds DB-18, DB-19, DB-13, E-3 were added.
(4) The cells were incubated on ice for 2 hours.
(5) The cells were washed three times with ice-cold PBS.
(6) The cells were lysed with 0.5 mL of 1 M sodium hydroxide, and washed twice with 0.5 mL PBS. The sodium hydroxide (0.5 mL) and PBS (0.5 mL×2) solutions were collected for uptake counting.

PSMA protein = PSMA protein (Homo sapiens (Human), UniProt Q04609); assay: Affinity of DB compounds to PSMA protein using Biacore (Effect Example 3); details: Biacore 8K, 15° C., 1:1 binding model; pKD=−Log KD
Sequence of PSMA protein (Q04609 whole entry): as above
Protocol: The affinity of DB compounds to PSMA protein was tested using the Biacore 8K (Cytiva) instrument to detect ligand binding to PSMA protein (Sino Biological). PSMA protein was captured on an SA chip. Before fixing the ligand (flow paths 1 and 2, flow rate of 10 μL/min), PSMA protein (10 μg/mL, flow rate of 5 μL/min, injection time of 600 s) was fixed on flow path 2 using a flow buffer. The sensor surface was adjusted by continuously injecting 1 M NaCl three times in 50 mM NaOH. After each ligand injection, additional cleaning was performed using isopropanol in 1 M NaCl and 50 mM NaOH (flow paths 1 and 2, flow rate of 10 μL/min, injection time of 60 s).
All compounds were dissolved in 100% DMSO and diluted to 10 mM, then further diluted to the appropriate highest concentration in the analysis buffer (PBS, PH 7.4, 1 mM TCEP ([…]), 0.05% P20, 2% DMSO). The analysis was conducted under the following conditions: 15° C. analysis temperature; analysis steps=all set to LMW kinetics; cycle type=single cycle (90 s contact time, 1800 s dissociation time, 30 μL/min flow rate, flow paths 1 and 2); detection in flow=path 2-1. Data evaluation was performed using Biacore Insight Evaluation Software, fitting the data to a 1:1 binding model.
Biacore results are shown in Table 5: pKD=−Log KD, wherein KD is the binding affinity of the compound to PSMA protein measured by Biacore. It is expressed by Kd (M)=Kd (1/s)/Ka (1/Ms). A indicates pKD>8; B indicates 7<pKD<8; C indicates 6<pKD<7; D indicates pKD<6.

LNCaP cells = assay: Cell killing, CCK8 assay; assay type: cell-based; details: 177Lu-labeled, 45 μCi/mL, CCK8 on fifth day
Protocol: A. LNCaP cells in the logarithmic growth phase were prepared into a cell suspension, and the cell density was adjusted to 1×10^5 cells/mL. 1 mL of the cell suspension was seeded into each well of a 24-well cell culture plate. The cells were cultured for 24 hours in a 37° C. incubator.
B. The ^177Lu-labeled compound (^177Lu-E-3) was prepared in serum-containing culture medium at radioactive concentrations of 5, 15, and 45 μCi/mL (the unlabeled E-3 was prepared at a corresponding precursor concentration for 45 μCi/mL).
C. The experimental groups were treated with 1 mL/well of the above ^177Lu-labeled compound solutions, while the control group was treated with 1 mL/well of serum-containing culture medium.
D. The cells were cultured in the incubator for 24 hours, after which the medium was entirely replaced with fresh culture medium.
E. On the fifth day, cell proliferation in each group was monitored using an enhanced CCK8 assay kit.

albumin in rat plasma = assay: Plasma protein binding (PPB) test by ultrafiltration; assay type: in vitro ADME; details: 177Lu-labeled compound
Protocol: The labeled compounds ^177Lu-E-3, 177Lu-DB-13, 177Lu-DB-18, and ^177Lu-DB-19 (1 μCi) were prepared in a reaction solution by adding 50 μL of PBS to achieve a concentration of 20 μCi/mL. 50 μL of the 20 μCi/mL reaction solution was added to 200 μL of plasma, repeated for 3 tubes. The mixture was mixed well and incubated at room temperature for 10 minutes, then added to ultrafiltration tubes and centrifuged at 13000 rpm for 45 minutes. Following this, 50 μL of normal saline was added and the samples were centrifuged again for 15 minutes. The upper chamber and the filtrate were respectively counted for radioactivity.
PPB=[(upper chamber counts−background counts]/(filtrate counts+upper chamber counts−2*background counts)]*100%.

Blood uptake [1]: 0.025 % ID/g
Kidney uptake [1]: 2.890 % ID/g
Liver uptake [1]: 0.115 % ID/g
Muscle uptake [1]: 0.060 % ID/g
Tumor uptake [1]: 16.195 % ID/g
logP [2]: -1.96
IC50 [3]: 1.83 nM
Kd (PSMA protein): < 10 nM
plasma protein binding ratio (albumin binding ratio) (albumin in rat plasma): 90.84%
SMILES: O=C(O)CC[C@H](NC(=O)NC(CCCCNC(=O)[C@H](Cc1ccc2ccccc2c1)NC(=O)[C@H]1CC[C@H](NC(=O)CCC(=O)NCC(=O)N2CN(C(=O)CNC(=O)CCC(=O)N[C@H]3CC[C@H](C(=O)N[C@@H](Cc4ccc5ccccc5c4)C(=O)NCCCC[C@H](NC(=O)N[C@@H](CCC(=O)O)C(=O)O)C(=O)O)CC3)CN(C(=O)CNC(=O)CN3CCN(CC(=O)O)CCN(CC(=O)O)CCN(CC(=O)O)CC3)C2)CC1)C(=O)O)C(=O)O (stereo partly shown) [DB-13]
cell-killing rate (LNCaP cells): 67%
